According to ChEMBL document CHEMBL3853333, “Synthesis of novel arylaminoquinazolinylurea derivatives and their antiproliferative activities against bladder cancer cell line” (2016):

Experiment: Antiproliferative activity against human RT112 cells after 72 hrs by MTT assay
Type: functional
Conditions: RT-112, 72 h

First: CCOC(=O)c1ccc(NC(=O)Nc2cccc3c(Nc4cc(OC)cc(OC)c4)ncnc23)cc1
Second: COc1cc(Nc2ncnc3c(NC(=O)Nc4ccc(Cl)cc4)cccc23)cc(OC)c1
The GI50 of the first is 7.9-fold lower: 317 nM for the first, 2490 nM for the second.

Compared with `COc1cc(Nc2ncnc3c(NC(=O)Nc4cccc(C)c4C)cccc23)cc(OC)c1`, `COc1cc(Nc2ncnc3c(NC(=O)Nc4ccc(C)cc4C)cccc23)cc(OC)c1` is 4.6-fold lower in GI50: 5910 nM for the first, 1290 nM for the second.

Compared with `COc1cc(Nc2ncnc3c(NC(=O)Nc4cc(F)cc(F)c4)cccc23)cc(OC)c1`, `COc1cc(Nc2ncnc3c(NC(=O)Nc4cc(Cl)cc(Cl)c4)cccc23)cc(OC)c1` is 87-fold lower in GI50: 2630 nM for the first, 30.2 nM for the second.

First: COc1cc(Nc2ncnc3c(NC(=O)Nc4ccc(C(F)(F)F)cc4[N+](=O)[O-])cccc23)cc(OC)c1
Second: COc1cc(Nc2ncnc3c(NC(=O)Nc4ccc(C(F)(F)F)cc4Cl)cccc23)cc(OC)c1
The GI50 of the first is higher: over 20000 nM for the first, 1080 nM for the second.

First: COc1cc(Nc2ncnc3c(NC(=O)Nc4cccc(Cc5ccccc5)c4)cccc23)cc(OC)c1
Second: COc1cc(Nc2ncnc3c(NC(=O)Nc4cccc(Oc5ccccc5)c4)cccc23)cc(OC)c1
The GI50 of the first is 8-fold lower: 1740 nM for the first, 14000 nM for the second.

First: COc1cc(Nc2ncnc3c(NC(=O)Nc4ccc(F)cc4C(F)(F)F)cccc23)cc(OC)c1
Second: COc1cc(Nc2ncnc3c(NC(=O)Nc4cccc(C(F)(F)F)c4F)cccc23)cc(OC)c1
The GI50 of the first is 6.3-fold higher: 2970 nM for the first, 471 nM for the second.

Compared with `COc1cc(Nc2ncnc3c(NC(=O)c4cccc(N5CCN(C)CC5)c4)cccc23)cc(OC)c1`, `COc1cc(Nc2ncnc3c(NC(=O)c4ccc(N5CCN(C)CC5)cc4)cccc23)cc(OC)c1` is lower in GI50: over 20000 nM for the first, 14200 nM for the second.

Going from `COc1cc(Nc2ncnc3c(NC(=O)Nc4ccc(Cl)cc4Cl)cccc23)cc(OC)c1` to `COc1cc(Nc2ncnc3c(NC(=O)Nc4cccc(Cl)c4Cl)cccc23)cc(OC)c1`, the GI50 falls from 3060 nM to 63.2 nM (48-fold).

Compared with `COc1cc(Nc2ncnc3c(NC(=O)Nc4ccc([N+](=O)[O-])cc4)cccc23)cc(OC)c1`, `COc1cc(Nc2ncnc3c(NC(=O)Nc4ccc(C(F)(F)F)cc4)cccc23)cc(OC)c1` is lower in GI50: over 20000 nM for the first, 3920 nM for the second.

First: COc1cc(Nc2ncnc3c(NC(=O)Nc4ccccc4Cl)cccc23)cc(OC)c1
Second: COc1cc(Nc2ncnc3c(NC(=O)Nc4ccc(Cl)c(Cl)c4)cccc23)cc(OC)c1
The GI50 of the first is 18-fold lower: 356 nM for the first, 6230 nM for the second.

Compared with `COc1cc(Nc2ncnc3c(NC(=O)Nc4ccc(Cl)c(C(F)(F)F)c4)cccc23)cc(OC)c1`, `COc1cc(Nc2ncnc3c(NC(=O)Nc4ccc(C)c(C)c4)cccc23)cc(OC)c1` is lower in GI50: over 20000 nM for the first, 8.8 nM for the second.

First: COc1cc(Nc2ncnc3c(NC(=O)Nc4ccc5c(c4)OCCO5)cccc23)cc(OC)c1
Second: COc1cc(Nc2ncnc3c(NC(=O)Nc4cc(C)cc(C)c4)cccc23)cc(OC)c1
The GI50 of the first is 3.7-fold lower: 2750 nM for the first, 10100 nM for the second.

First: COc1cc(Nc2ncnc3c(NC(=O)c4cc(=O)c5ccccc5o4)cccc23)cc(OC)c1
Second: COc1cc(Nc2ncnc3c(NC(=O)c4ccc(CN(C)C)cc4)cccc23)cc(OC)c1
The GI50 of the first is higher: over 20000 nM for the first, 4370 nM for the second.

First: COc1cc(NC(=O)Nc2cccc3c(Nc4cc(OC)cc(OC)c4)ncnc23)cc(OC)c1
Second: COc1cc(Nc2ncnc3c(NC(=O)Nc4ccc(F)cc4F)cccc23)cc(OC)c1
The GI50 of the first is 6.7-fold lower: 366 nM for the first, 2460 nM for the second.

First: COc1cc(Nc2ncnc3c(NC(=O)Nc4cc(Cl)c(Cl)cc4Cl)cccc23)cc(OC)c1
Second: COc1cc(Nc2ncnc3c(NC(=O)Nc4cc(C(F)(F)F)cc(C(F)(F)F)c4)cccc23)cc(OC)c1
The GI50 of the first is 10-fold higher: 4890 nM for the first, 467 nM for the second.

Compared with `COc1cc(CCc2cc(NC(=O)c3ccc(N4C[C@@H](C)N[C@@H](C)C4)cc3)n[nH]2)cc(OC)c1` [FEXAGRATINIB], `CCN(CC)CCCCNc1ncc2cc(-c3cc(OC)cc(OC)c3)c(NC(=O)NC(C)(C)C)nc2n1` [PD-173074] is 1.9-fold lower in GI50: 29.2 nM for the first, 15 nM for the second.
